The source of these data is paper doi:10.1101/2022.08.09.503277v2 (biorxiv, 2022).

This assay has as its target ECD-AT1G56145 (IGP1) (Arabidopsis thaliana, UniProt F4I3K3). The assay can be described thus: isothermal titration calorimetry. Type of assay: binding. The conditions noted are these: 20 mM sodium citrate pH 5.0, 150 mM NaCl, 25 °C; single site, N fixed to 1. (In ITC the heat of successive injections is recorded.)

Regarding `OC[C@H]1O[C@@H](O[C@H]2[C@H](O)[C@@H](O)[C@H](O[C@H]3[C@H](O)[C@@H](O)[C@H](O[C@H]4[C@H](O)[C@@H](O)[C@H](O[C@H]5[C@H](O)[C@@H](O)C(O)O[C@@H]5CO)O[C@@H]4CO)O[C@@H]3CO)O[C@@H]2CO)[C@H](O)[C@@H](O)[C@@H]1O` (some centres unmarked) [CEL5], the affinity, expressed as Kd, was 1400 ± 10 nM.

For the compound `OC[C@H]1O[C@@H](O[C@H]2[C@H](O)[C@@H](O)[C@H](O[C@H]3[C@H](O)[C@@H](O)C(O)O[C@@H]3CO)O[C@@H]2CO)[C@H](O)[C@@H](O)[C@@H]1O` (some centres unmarked) [CEL3], binding was characterised by a dissociation constant (Kd) of 1190 ± 30 nM. This Kd and that of the compound before are within 1.5-fold of each other.

As usually defined, the Kd is the constant that tells how readily two partners part at equilibrium.
